We go through nine compounds from PubChem BioAssay (NCI).

Among the test systems are LOX IMVI melanoma; A549 NSCLC; CAKI-1 renal; NCI-H23 lung; ACHN renal; NCI-H522 lung; NCI-H226 lung; HOP-62 NSCLC; TK-10 renal; COLO 205 colon; SF-295 CNS; SF-268 CNS; HL-60(TB) leukemia; SR leukemia; HCT-116 colon; MOLT-4 leukemia; K-562 leukemia; A498 renal.
What all share (experiment): inhibition of tumour cell growth, NCI panel, 48 h

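Tested at 5 concentrations; 48 h exposure; 96-well plates; endpoints linearly interpolated, else capped at highest concentration. TGI: concentration producing complete growth inhibition.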

`COc1ccc(/C(Cl)=C(/c2ccc(O)cc2)c2ccc(OCCN(C)C)cc2)cc1`: the TGI in the experiment on LOX IMVI melanoma came to 12.6 µM; in the experiment with A549 NSCLC, 26.7 µM; in the experiment with CAKI-1 renal it was 27.5 µM; in the experiment on NCI-H23 lung, 29.1 µM; with ACHN renal it was 27.8 µM; in the experiment with NCI-H522 lung, 25.1 µM. Moreover, the TGI with NCI-H226 lung worked out at 34.4 µM; with HOP-62 NSCLC, 26.7 µM; with TK-10 renal it was 34.1 µM; in the experiment on COLO 205 colon, 22.4 µM; in the experiment on SF-295 CNS, 16.3 µM; in the experiment with SF-268 CNS it was 24.7 µM. Besides, the TGI was found to be 26 µM in the experiment on HL-60(TB) leukemia and 10.6 µM with SR leukemia.
Take `CC(=O)N1c2ccccc2C2=CC3C4C(=O)N(c5ccccc5)C(=O)C4C21C1C(=O)N(c2ccccc2)C(=O)C31` (centres undefined): the TGI with LOX IMVI melanoma, in the experiment with A549 NSCLC, in the experiment with HCT-116 colon, in the experiment with MOLT-4 leukemia, in the experiment on CAKI-1 renal and in the experiment on NCI-H23 lung was greater than 100 µM each time. The TGI is greater than 100 µM in the experiment with ACHN renal; greater than 100 µM in the experiment with K-562 leukemia; greater than 100 µM in the experiment with TK-10 renal; greater than 100 µM in the experiment with COLO 205 colon; 39.1 µM in the experiment on SF-295 CNS; greater than 100 µM in the experiment with SF-268 CNS. Besides, the results for the TGI with HL-60(TB) leukemia, in the experiment on SR leukemia and in the experiment with A498 renal were 58.8 µM, greater than 100 µM and greater than 100 µM, respectively.
Turning to `Nc1nc2sc3ccccc3c(=O)n2n1`, the TGI in the experiment with LOX IMVI melanoma, in the experiment on A549 NSCLC, in the experiment with HCT-116 colon, with MOLT-4 leukemia, in the experiment with CAKI-1 renal and with NCI-H23 lung was greater than 100 µM throughout. Further, the TGI in the experiment on ACHN renal, in the experiment with K-562 leukemia, with NCI-H226 lung, with HOP-62 NSCLC, with TK-10 renal and in the experiment on COLO 205 colon was greater than 100 µM throughout. Besides, the TGI in the experiment on SF-295 CNS, in the experiment with SF-268 CNS, with HL-60(TB) leukemia and in the experiment on SR leukemia was greater than 100 µM each time.
Consider `Nc1nc(NCCO)c(N=O)c(=O)[nH]1`, for which the TGI with LOX IMVI melanoma, with A549 NSCLC, in the experiment on HCT-116 colon, in the experiment with CAKI-1 renal, in the experiment with ACHN renal and in the experiment with K-562 leukemia was greater than 100 µM each time. The TGI in the experiment with NCI-H522 lung, in the experiment with NCI-H226 lung, in the experiment with HOP-62 NSCLC, in the experiment with TK-10 renal, in the experiment on COLO 205 colon and in the experiment on SF-295 CNS was greater than 100 µM throughout. Moreover, the TGI in the experiment with SF-268 CNS, in the experiment with HL-60(TB) leukemia and with A498 renal was greater than 100 µM each time.
Regarding `COC(=O)C1CCC(Nc2ccc(C)cc2C)=N1` (centres undefined), the TGI with LOX IMVI melanoma, in the experiment on A549 NSCLC, in the experiment on HCT-116 colon, with MOLT-4 leukemia, with CAKI-1 renal and in the experiment on NCI-H23 lung was greater than 100 µM in each case. Further, the TGI with ACHN renal, in the experiment with K-562 leukemia, with NCI-H522 lung, in the experiment on NCI-H226 lung, with HOP-62 NSCLC and in the experiment on TK-10 renal was greater than 100 µM each time. In addition, the TGI in the experiment on COLO 205 colon, with SF-295 CNS, with SF-268 CNS, in the experiment with HL-60(TB) leukemia and in the experiment with A498 renal was greater than 100 µM each time.
With `N#CC(/C(=N/NC(=O)C(=O)NN)C(=O)Nc1nc([N+](=O)[O-])cs1)c1ccc(Cl)cc1` (centres undefined), the TGI in the experiment with LOX IMVI melanoma, in the experiment with A549 NSCLC, in the experiment on HCT-116 colon, in the experiment with MOLT-4 leukemia, with NCI-H23 lung and in the experiment on ACHN renal was greater than 100 µM each time. Moreover, the TGI in the experiment on NCI-H226 lung, with HOP-62 NSCLC, in the experiment on TK-10 renal, in the experiment with COLO 205 colon, with SF-295 CNS and with SF-268 CNS was greater than 100 µM in each case. For the same compound, the TGI with HL-60(TB) leukemia was greater than 100 µM.
Consider `CCOCN1COCN=C1NC#N`, for which the TGI in the experiment with A549 NSCLC, with HCT-116 colon, with MOLT-4 leukemia, in the experiment on CAKI-1 renal, in the experiment on NCI-H23 lung and in the experiment on ACHN renal was greater than 100 µM in each case. Also, the TGI is greater than 100 µM in the experiment on K-562 leukemia; greater than 100 µM in the experiment on NCI-H522 lung; greater than 100 µM with NCI-H226 lung; greater than 100 µM in the experiment on HOP-62 NSCLC; greater than 100 µM with TK-10 renal; 69.7 µM in the experiment on COLO 205 colon. Moreover, the TGI is greater than 100 µM in the experiment with SF-295 CNS; greater than 100 µM in the experiment with SF-268 CNS; greater than 100 µM in the experiment on HL-60(TB) leukemia; 76.5 µM in the experiment with SR leukemia; greater than 100 µM in the experiment on A498 renal.
With `COc1ccc2c(c1)C(=O)N1CCOC1C2C(=O)O` (centres undefined), the TGI in the experiment with LOX IMVI melanoma, with A549 NSCLC, in the experiment with HCT-116 colon, in the experiment on MOLT-4 leukemia, with CAKI-1 renal and with NCI-H23 lung was greater than 100 µM in each case. Also, the TGI is greater than 100 µM with ACHN renal; greater than 100 µM with K-562 leukemia; greater than 100 µM with NCI-H522 lung; greater than 100 µM with HOP-62 NSCLC; greater than 100 µM in the experiment on TK-10 renal; 29.8 µM in the experiment with SF-295 CNS. Besides, the TGI in the experiment on SF-268 CNS, with HL-60(TB) leukemia, in the experiment with SR leukemia and in the experiment with A498 renal was greater than 100 µM each time.
Regarding `Nc1ccc2nc(NCc3ccc(F)cc3)cnc2c1`, the TGI in the experiment with LOX IMVI melanoma, with A549 NSCLC, in the experiment on HCT-116 colon, in the experiment with MOLT-4 leukemia, with NCI-H23 lung and in the experiment with ACHN renal was greater than 100 µM each time. For the same compound, the TGI in the experiment on K-562 leukemia, in the experiment with NCI-H522 lung, in the experiment on NCI-H226 lung, in the experiment on HOP-62 NSCLC, in the experiment on TK-10 renal and in the experiment with COLO 205 colon was greater than 100 µM throughout. Moreover, the TGI in the experiment on SF-295 CNS, in the experiment with SF-268 CNS, with HL-60(TB) leukemia and in the experiment with SR leukemia was greater than 100 µM in each case.
